From US20260078130A1, “NAMPT MODULATORS, PREPARATIONS, AND USES THEREOF” (SIRONAX LTD., priority 2022, published 2026) come the findings set out here.

Where two headings read alike, the source gives them in different places.

Test [1] deals with endogenous NAMPT in U2OS cells. Briefly: Cellular NAD+ modulation assay (NAD/NADH-Glo, U2OS cells). Format: cell-based. Conditions: Homo sapiens; for maximal fold induction: read-out: Cellular Emax. A digest of the protocol: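 NAD/NADH-Glo luminescence quantified NAD+ after acid treatment (60 °C, 15 min) and neutralization of DTAB lysates. Beforehand, U2OS cells seeded 16 h earlier received compound concentration series for 24 h at 37 °C. Values given as half-maximal activation concentration (EC50) and maximal fold change versus DMSO (Emax).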

Test [2] has as its target T1, human enzyme NAMPT (full length) (Homo sapiens, UniProt P43490).
T1 construct: human enzyme NAMPT (full length)
Description: NMN fluorescence biochemical assay (stimulation of NMN synthesis by NAMPT). Conditions: for EC50: concentration giving half-maximal activation, read-out: Enzymatic EC50; for Enzymatic Emax: fold change of maximal activation compared to DMSO. A digest of the protocol:
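Full-length human NAMPT (100 nM) was preincubated 15 min at 37 °C with compound in 50 mM Tris-HCl pH 7.5, 10 mM MgCl2, 2 mM DTT, then reacted 1 h at 37 °C with 50 μM NAM, 100 μM PRPP, 4 mM ATP (stated solution concentrations). NMN was derivatised with acetophenone/KOH then formic acid and read at Ex/Em 382/445 nm; EC50 and Emax (fold over DMSO) reported.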

Setting [3] is: 24 hours incubation, cellular NAD+.
[4] abbreviates: NMN fluorescence assay, purified human NAMPT 100 nM.
Setting [5] is: 24 hours incubation with compound.
The mark [6] stands for this setting: NMN synthesis by purified human NAMPT (100 nM).

T1 sequence (P43490 whole entry): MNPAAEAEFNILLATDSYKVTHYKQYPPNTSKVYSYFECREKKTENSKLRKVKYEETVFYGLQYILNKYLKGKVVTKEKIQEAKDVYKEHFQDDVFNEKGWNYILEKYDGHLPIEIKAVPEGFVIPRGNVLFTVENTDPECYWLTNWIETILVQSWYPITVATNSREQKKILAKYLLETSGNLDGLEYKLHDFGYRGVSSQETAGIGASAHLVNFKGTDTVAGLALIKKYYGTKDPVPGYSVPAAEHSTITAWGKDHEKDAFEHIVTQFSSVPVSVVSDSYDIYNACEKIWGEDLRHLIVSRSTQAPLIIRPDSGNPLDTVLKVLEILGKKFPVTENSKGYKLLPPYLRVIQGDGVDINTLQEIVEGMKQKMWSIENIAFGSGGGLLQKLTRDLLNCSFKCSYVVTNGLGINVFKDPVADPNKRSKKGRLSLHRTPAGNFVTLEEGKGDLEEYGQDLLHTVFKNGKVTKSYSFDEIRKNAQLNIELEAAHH

`Cc1nc(Cl)c(CC2c3ccccc3C(=O)N2CC2CC3(CNC(=O)O3)C2)n1C` (centres unmarked) [Compound 526, 2-((1-((4-chloro-1,2-dimethyl-1H-imidazol-5-yl)methyl)-3-oxoisoindolin-2-yl)methyl)-5-oxa-7-azaspiro[3.4]octan-6-one]: in test [1] (setting [3]), the half-maximal effective concentration (EC50) is 500 to 5000 nM and the maximal fold induction is greater than 1.5. Moreover, the EC50 in test [2] (setting [4]) was 0.5 to 5 µM. Moreover, the “Enzymatic Emax” value in test [2] was “B (3≥B>2)”.

For the compound `NC(=O)Nc1ccc(CN2Cc3ccccc3C2=O)cc1` [Compound 293, 1-(4-((1-oxoisoindolin-2-yl)methyl)phenyl)urea], the 50% effective concentration (EC50) in test [1] (setting [5]) is 5000 to 50000 nM; in test [2] (setting [6]), less than 0.5 µM. Besides, in test [1] (setting [5]), the maximal fold induction was greater than 1.5. The “Enzymatic Emax” value in test [2] is “C (2≥C)”.

Turning to `COC1CN(c2ccc3c(c2)C(C)N(Cc2ccc4[nH]c(=O)oc4c2)C3=O)C1` (centres unmarked) [Compound 128, 6-((5-(3-methoxyazetidin-1-yl)-3-methyl-1-oxoisoindolin-2-yl)methyl)benzo[d]oxazol-2(3H)-one], in test [1] (setting [5]), the EC50 lay within 500 to 5000 nM and the maximal fold induction is greater than 1.5. Further, the half-maximal effective concentration (EC50) in test [2] (setting [6]) is no less than 5 µM. The “Enzymatic Emax” value in test [2] was “B (3≥B>2)”.

With `Cn1ncc(Cl)c1CC1c2ccccc2C(=O)N1CC1CC2(CNC(=O)S2)C1` (centres unmarked) [Compound 568, 2-((1-((4-chloro-1-methyl-1H-pyrazol-5-yl)methyl)-3-oxoisoindolin-2-yl)methyl)-5-thia-7-azaspiro[3.4]octan-6-one], the EC50 in test [1] (setting [3]) was less than 500 nM; in test [2] (setting [4]), less than 0.5 µM. For the same compound, the maximal fold induction in test [1] (setting [3]) lay within 1.2 to 1.5. For the same compound, in test [2], the “Enzymatic Emax” value is “B (3≥B>2)”.

`O=C1c2ccccc2C(Cc2nnc(Cl)cc2Cl)N1Cc1ccc2[nH]c(=O)oc2c1` (centres unmarked) [Compound 227, 6-((1-((4,6-dichloropyridazin-3-yl)methyl)-3-oxoisoindolin-2-yl)methyl)benzo[d]oxazol-2(3H)-one]: in test [1] (setting [5]), the concentration for a half-maximal effect (EC50) lay in the range of 500 to 5000 nM and the maximal fold induction is greater than 1.5. The EC50 in test [2] (setting [6]) lay in the range of 0.5 to 5 µM. Also, in test [2], the “Enzymatic Emax” value is “A (A>3)”.

As to `O=C1c2cccc(Br)c2C(=O)N1Cc1ccc(O)cc1` [Compound 296, 4-bromo-2-(4-hydroxybenzyl)isoindoline-1,3-dione], in test [1] (setting [5]), the EC50 is 500 to 5000 nM and the maximal fold induction lay within 1.2 to 1.5. For the same compound, the half-maximal effective concentration (EC50) in test [2] (setting [6]) was 0.5 to 5 µM. Also, the “Enzymatic Emax” value in test [2] is listed as “C (2≥C)”.

On to `Cn1ncc(Cl)c1CC1c2ccccc2C(C)(C)N1C/C=C/c1c[nH]nn1` (centres unmarked) [Compound 606, (E)-2-(3-(1H-1,2,3-triazol-4-yl)allyl)-3-((4-chloro-1-methyl-1H-pyrazol-5-yl)methyl)-1,1-dimethylisoindoline], for which, in test [1] (setting [3]), the EC50 was less than 500 nM and the maximal fold induction is greater than 1.5. Besides, the EC50 in test [2] (setting [4]) lay in the range of 0.5 to 5 µM. Further, in test [2], the “Enzymatic Emax” value is listed as “A (A>3)”.

In the case of `O=c1c2ccccc2ccn1Cc1ccc(O)cc1` [Compound 1, 2-(4-hydroxybenzyl)isoquinolin-1(2H)-one], the concentration giving a half-maximal response (EC50) is 500 to 5000 nM in test [1] (setting [5]) and no less than 5 µM in test [2] (setting [6]). Moreover, the maximal fold induction in test [1] (setting [5]) is greater than 1.5. The “Enzymatic Emax” value in test [2] is recorded as “A (A>3)”.

Take `CCn1ncc(Cl)c1CC1c2ccccc2C(=O)N1CC1CC2(CNC(=O)O2)C1` (centres unmarked) [Compound 465, 2-((1-((4-chloro-1-ethyl-1H-pyrazol-5-yl)methyl)-3-oxoisoindolin-2-yl)methyl)-5-oxa-7-azaspiro[3.4]octan-6-one]: in test [1] (setting [3]), the concentration giving a half-maximal response (EC50) is less than 500 nM and the maximal fold induction is greater than 1.5. In addition, the 50% effective concentration (EC50) in test [2] (setting [4]) was in the range of 0.5 to 5 µM. The “Enzymatic Emax” value in test [2] is on record as “B (3≥B>2)”.

With `COc1ccc(CN2C(=O)c3ccccc3C2Cc2c(C)ccnc2C#N)cc1` (centres unmarked) [Compound 567, 3-((2-(4-methoxybenzyl)-3-oxoisoindolin-1-yl)methyl)-4-methylpicolinonitrile], in test [1] (setting [3]), the half-maximal effective concentration (EC50) was less than 500 nM and the maximal fold induction is greater than 1.5. For the same compound, the EC50 in test [2] (setting [4]) is less than 0.5 µM. Also, the “Enzymatic Emax” value in test [2] is “B (3≥B>2)”.

As for `CC(C)c1ccc2c(c1)C(=O)N(Cc1ccc(O)cc1)C2=O` [Compound 26, 2-(4-hydroxybenzyl)-5-isopropylisoindoline-1,3-dione], in test [1] (setting [5]), the EC50 is less than 500 nM and the maximal fold induction is no more than 1.2. Besides, the concentration for a half-maximal effect (EC50) in test [2] (setting [6]) lay in the range of 0.5 to 5 µM. For the same compound, the “Enzymatic Emax” value in test [2] is “A (A>3)”.

Turning to `Cn1ncc(Cl)c1CC1c2ccccc2C(=O)N1Cc1c[nH]c(=S)s1` (centres unmarked) [Compound 631, 3-((4-chloro-1-methyl-1H-pyrazol-5-yl)methyl)-2-((2-thioxo-2,3-dihydrothiazol-5-yl)methyl)isoindolin-1-one], in test [1] (setting [3]), the concentration giving a half-maximal response (EC50) lay in the range of 500 to 5000 nM and the maximal fold induction was greater than 1.5. Further, the EC50 in test [2] (setting [4]) was no less than 5 µM. For the same compound, the “Enzymatic Emax” value in test [2] was “A (A>3)”.

Regarding `O=C1c2ccccc2C(Cc2ncccc2Br)N1CC1CCc2[nH]nnc2C1` (centres unmarked) [Compound 332, 3-((3-bromopyridin-2-yl)methyl)-2-((4,5,6,7-tetrahydro-1H-benzo[d][1,2,3]triazol-5-yl)methyl)isoindolin-1-one], in test [1] (setting [3]), the concentration giving a half-maximal response (EC50) is less than 500 nM and the maximal fold induction is greater than 1.5. Also, the EC50 in test [2] (setting [4]) fell in the range of 0.5 to 5 µM. For the same compound, the “Enzymatic Emax” value in test [2] is on record as “A (A>3)”.

Take `Cn1ncc(Cl)c1CC1c2ccccc2CCN1CC1CC2(CNC(=O)O2)C1` (centres unmarked) [Compound 610, 2-((1-((4-chloro-1-methyl-1H-pyrazol-5-yl)methyl)-3,4-dihydroisoquinolin-2(1H)-yl)methyl)-5-oxa-7-azaspiro[3.4]octan-6-one]: in test [1] (setting [3]), the half-maximal effective concentration (EC50) lay in the range of 500 to 5000 nM and the maximal fold induction lay within 1.2 to 1.5. Further, the EC50 in test [2] (setting [4]) was no less than 5 µM. Besides, the “Enzymatic Emax” value in test [2] is on record as “B (3≥B>2)”.

Regarding `Cc1c(CN2C(=O)c3ccccc3C2Cc2ncccc2Br)ccc2[nH]c(=O)oc12` (centres unmarked) [Compound 349, 6-((1-((3-bromopyridin-2-yl)methyl)-3-oxoisoindolin-2-yl)methyl)-7-methylbenzo[d]oxazol-2(3H)-one], in test [1] (setting [3]), the EC50 was 5000 to 50000 nM and the maximal fold induction was greater than 1.5. Also, the 50% effective concentration (EC50) in test [2] (setting [4]) was in the range of 0.5 to 5 µM. Moreover, the “Enzymatic Emax” value in test [2] is recorded as “A (A>3)”.

In the case of `Cc1nc(O)sc1CN1C(=O)c2ccccc2C1Cc1c(Cl)cnn1C` (centres unmarked) [Compound 635, 3-((4-chloro-1-methyl-1H-pyrazol-5-yl)methyl)-2-((2-hydroxy-4-methylthiazol-5-yl)methyl)isoindolin-1-one], in test [1] (setting [3]), the 50% effective concentration (EC50) was 500 to 5000 nM and the maximal fold induction is greater than 1.5. Besides, the concentration for a half-maximal effect (EC50) in test [2] (setting [4]) was in the range of 0.5 to 5 µM. The “Enzymatic Emax” value in test [2] is on record as “B (3≥B>2)”.

For the compound `Cc1ccc(C#N)c(CC2c3ccccc3C(=O)N2Cc2ccc3[nH]c(=O)oc3c2)c1` (centres unmarked) [Compound 164, 4-methyl-2-((3-oxo-2-((2-oxo-2,3-dihydrobenzo[d]oxazol-6-yl)methyl)isoindolin-1-yl)methyl)benzonitrile], in test [1] (setting [5]), the EC50 was less than 500 nM and the maximal fold induction was greater than 1.5. In addition, the EC50 in test [2] (setting [6]) was less than 0.5 µM. Also, in test [2], the “Enzymatic Emax” value is given as “B (3≥B>2)”.

Consider `O=C1c2ccc(N3CCCC3)cc2CN1Cc1ccc2[nH]c(=O)oc2c1` [Compound 300, 6-((1-oxo-5-(pyrrolidin-1-yl)isoindolin-2-yl)methyl)benzo[d]oxazol-2(3H)-one], for which, in test [1] (setting [5]), the 50% effective concentration (EC50) lay in the range of 5000 to 50000 nM and the maximal fold induction lay within 1.2 to 1.5. Also, in test [2] (setting [6]), the EC50 is no less than 5 µM. The “Enzymatic Emax” value in test [2] was “C (2≥C)”.

For the compound `Cc1cccc2c1C(Cc1c(Cl)cnn1C)N(CC1CC3(CNC(=O)O3)C1)C2=O` (centres unmarked) [Compound 470, 2-((3-((4-chloro-1-methyl-1H-pyrazol-5-yl)methyl)-4-methyl-1-oxoisoindolin-2-yl)methyl)-5-oxa-7-azaspiro[3.4]octan-6-one], the half-maximal effective concentration (EC50) in test [1] (setting [3]) is 500 to 5000 nM; in test [2] (setting [4]), no less than 5 µM. In addition, the maximal fold induction in test [1] (setting [3]) was greater than 1.5. Besides, the “Enzymatic Emax” value in test [2] is recorded as “B (3≥B>2)”.

Take `Cn1ncc(Cl)c1CC1c2cccc(F)c2C(=O)N1CC1CC2(CNC(=O)O2)C1` (centres unmarked) [Compound 309, 2-((1-((4-chloro-1-methyl-1H-pyrazol-5-yl)methyl)-4-fluoro-3-oxoisoindolin-2-yl)methyl)-5-oxa-7-azaspiro[3.4]octan-6-one]: the EC50 in test [1] (setting [5]) is less than 500 nM; in test [2] (setting [6]) it was less than 0.5 µM. Moreover, in test [1] (setting [5]), the maximal fold induction is greater than 1.5. For the same compound, the “Enzymatic Emax” value in test [2] was “B (3≥B>2)”.

As to `N#Cc1cncc(C#N)c1CC1c2ccccc2C(=O)N1CC1CC2(CNC(=O)O2)C1` (centres unmarked) [Compound 459, 4-((3-oxo-2-((6-oxo-5-oxa-7-azaspiro[3.4]octan-2-yl)methyl)isoindolin-1-yl)methyl)pyridine-3,5-dicarbonitrile], in test [1] (setting [3]), the EC50 was less than 500 nM and the maximal fold induction was greater than 1.5. For the same compound, the EC50 in test [2] (setting [4]) lay in the range of 0.5 to 5 µM. The “Enzymatic Emax” value in test [2] is recorded as “A (A>3)”.

For `COc1ccc2c(c1)C(C)N(Cc1ccc3[nH]c(=O)oc3c1)C2=O` (single isomer, unassigned) [Compound 243], in test [1] (setting [5]), the concentration giving a half-maximal response (EC50) lay within 500 to 5000 nM and the maximal fold induction was greater than 1.5. In addition, the EC50 in test [2] (setting [6]) was no less than 5 µM. Also, in test [2], the “Enzymatic Emax” value is listed as “A (A>3)”.

Consider `Cn1c2ccccc2c(=O)n1Cc1ccc2[nH]nnc2c1` [Compound 301, 2-((1H-benzo[d][1,2,3]triazol-5-yl)methyl)-1-methyl-1,2-dihydro-3H-indazol-3-one], for which, in test [1] (setting [5]), the EC50 is 5000 to 50000 nM and the maximal fold induction was in the range of 1.2 to 1.5. Also, the 50% effective concentration (EC50) in test [2] (setting [6]) is no less than 5 µM. For the same compound, the “Enzymatic Emax” value in test [2] is on record as “C (2≥C)”.

As usually defined, the EC50 is the midpoint of the concentration-response curve.
